Results from patent publication US20160095837A1, “MODULATION OF MITOCHONDRIAL CALCIUM UNIPORTER ACTIVITY FOR TREATING AND PREVENTING ARRHYTHMIAS” (priority 2014, published 2016).

Assays:
Assay type in all cases: cell-based, mouse
[1] = system: SERCA2a activity ([Ca2+]cyto decline); assay: Cytoplasmic Ca2+ transient decay (Fura-2 AM) in SAN cells
Procedure: (§1) SAN cells were placed in Tyrode's solution at 36±0.5° C. and were identified by their characteristic morphology (spindle or spider shape) and spontaneous activity. SAN cells were identified electrophysiologically by spontaneous action potentials with a slow depolarizing phase 4 and the hyperpolarization-activated current (If).^27 Spontaneous action potentials, If and ICa were recorded using the perforated (amphotericin B or β-escin in studies requiring dialysis of Ru360 and/or ATP) patch-clamp technique^28 on single SAN cells at 36±0.5° C. in Tyrode's solution. Intracellular Ca^2+ transients were recorded from single SAN cells using Fura-2 AM excited at 340 nm and 380 nm and emitted and 510 nm. Endogenous NADH from single SAN cells was measured by excitation at 350 nm and recording emitted light at 460 nm.^29 Mitochondrial Ca^2+ was measured at 535 nm from mt-pericam expressing SAN cells exited at 415 nm^20. Mitochondrial Ca^2+ entry was measured in cell membrane permeabilized cardiomyocytes isolated from DN-MCU transgenic, wild type mice and from HEK293 cells using Calcium green-5N^30.
Cytosolic Ca^2+ levels were recorded from Fura-2-loaded cells, excited at wavelengths of 340 and 380 nm, and imaged with a 510 nm long-pass filter. Single isolated SAN cells were loaded with 0.1 μM Fura-2 AM for 20 minutes, and then perfused for 20 minutes to de-esterfy the Fura-2 AM in normal Tyrode's solution. After placement on a recording chamber, the cells were perfused in normal Tyrode's solution at 36° C.±0.5. Spindle-shaped, spontaneously beating cells were chosen for experiments. Action potential recording was performed simultaneously.

[2] = system: sinoatrial nodal (SAN) pacemaker cells; assay: Spontaneous action potential rate of single SAN cells (perforated patch clamp); conditions: for SAN activity response to ISO: SR Ca2+ release eliminated by ryanodine or SERCA2a inhibited by thapsigargin; for SAN cell beating rate at baseline: no ISO (FIG. 10a)
Procedure: as §1
Isolation of single SAN cells from mice was performed according to previously published methods^22, 27, 31 with minor modifications. Mice were administered an intraperitoneal injection of avertin (20 μl/g) and monitored until unresponsive. The heart was excised and placed into Tyrode's solution (35° C.), consisting of (mM) 140 NaCl, 5.0 HEPES, 5.5 Glucose, 5.4 KCl, 1.8 CaCl2, and 1.0 MgCl2. The pH was adjusted to 7.4 with NaOH. […] The SAN was cut into smaller pieces, which were transferred and rinsed in a solution containing (mM) 140 NaCl, 5.0 HEPES, 5.5 Glucose, 5.4 KCl, 0.2 CaCl2, 0.5 MgCl2, 1.2 KH2PO4, 50 Taurine and 1 mg/ml bovine serum albumin (BSA), with pH adjusted to 7.4 using NaOH. SAN tissue pieces were digested in 5 ml of solution containing collagenase type I, elastase (Worthington), and protease type XIV (Sigma) for 20-30 min. The tissue was transferred to 10 ml of Kraft-Bruhe (KB) medium containing (mM) 100 potassium glutamate, 5.0 HEPES, 20 Glucose, 25 KCl, 10 potassium aspartate, 2.0 MgSO4, 10 KH2PO4, 20 taurine, 5 creatine, 0.5 EGTA, and 1 mg/ml BSA, with pH adjusted to 7.2 using KOH. The tissue was agitated using a glass pipette for 10 min. The cells were stored at 4° C. and studied within 7 hours.
SAN cells were placed in Tyrode's solution at 36±0.5° C. SAN cells were identified by their characteristic morphology (spindle or spider shape) and spontaneous activity in all single cell experiments. SAN cells were also identified electrophysiologically by typical spontaneous action potentials with slow depolarizing phase 4 and the hyperpolarization-activated current (If) in electrophysiological experiments.
Spontaneous action potentials (APs) and If were recorded using the perforated (amphotericin B or β-escin) patch-clamp technique^28 on single SAN cell at 36±0.5° C. in Tyrode's solution (0.5 mM BaCl2 was added to the bath solution when recording If^32). The pipette was filled with (mM) 130 potassium aspartate, 10 NaCl, 10 HEPES, 0.04 CaCl2, amphotericin B 240 μg/ml with pH adjusted to 7.2 with KOH. SAN cells with stable APs lasting at least 5 min were included in the experiments. β-escin 25 μM was substituted for amphotericin B to allow dialysis of Ru360 or ATP. When recording If, membrane potential was held at −35 mV, the voltage steps were applied for 5 s ranging from −125 mV to −45 mV in 10 mV increments or vice versa.^33 ICa was measured using the perforated patch technique at […] as previously described.^22 ICa was confirmed by its sensitivity to Nifedipine 5 μM. Depolarizing voltage pulses (300 ms in duration) to various potentials (−60 mV to 60 mV in 10 mV step) were applied after 50 ms at −40 mV to inactivate INa from a holding potential of −70 mV. […]

NADH = NADH autofluorescence in SAN cells; conditions: ISO 100 nM
Procedure: as §1
The autofluorescence of endogenous NADH, which derives primarily from mitochondria,^29,35 was measured as described^29. NADH was excited at 350 nm (AT350/SOX, Chroma) and fluorescence was recorded at 460 nm (ET460/50m and T400LP, Chroma). […]

[3] = system: mitochondrial Ca2+ concentration ([Ca2+]mito); assay: Mitochondrial Ca2+ measurement with mt-pericam in cultured SAN cells; conditions: ISO 100 nM
Procedure: as §1
Freshly isolated mouse SAN tissue was cut into small pieces and put into 35 mm tissue culture plates with DMEM. […] Expression of the recombinant ratio-5mt-pericam and DN-MCU in SAN cells was detected by GFP fluorescence. […]

[4] = ATP dialysis, SAN cells from mice expressing phospholamban N27A

Compound: Nc1ncnc2c1ncn2[C@@H]1O[C@H](COP(=O)(O)OP(=O)(O)OP(=O)(O)O)[C@@H](O)[C@H]1O [ATP]
- Rate of [Ca2+]cyto decline after ISO with Ru360 and ATP co-dialysis ([1]; ATP 4 mM co-dialysis with Ru360, relative to ISO-stimulated values without Ru360): restored
- Rate of [Ca2+]cyto decline in N27A SAN cells [1, 4]: did not significantly increase
- SAN cell rate response to ISO, ATP dialysis 8 mM ([2]; ATP dialysis 8 mM): does not enhance
- SAN rate responses to ISO, ATP dialysis alone ([2]; ATP dialysis without Ru360): had no affect
- SAN action potential frequency in N27A SAN cells [2, 4]: did not significantly increase
- Inhibitory effect of Ru360 on SAN cell action potential frequency responses to ISO, with ATP co-dialysis ([2]; co-dialysis with ATP 4 mM and Ru360): reversed
- DN-MCU dependent loss of the ISO rate response, with ATP co-dialysis ([2]; cultured SAN cells expressing DN-MCU, ATP co-dialysis): rescued
- Basal SAN cell rates ([2]; dialysis, no ISO): neither Ru360 nor ATP had any affect

Compound: CC(C)NCC(O)c1ccc(O)c(O)c1 (stereo not shown) [ISO, isoproterenol]
- Rate of decline in [Ca2+]cyto ([1]; ISO vs control bath solution): significantly increased
- Rate of action potential initiation ([2]; ISO, concentration-dependent): increased
- NADH fluorescence (NADH): increased
- [Ca2+]mito [3]: caused an increase

Compound: C/C=C(/C)C(=O)O[C@H]1C(C)=C2[C@H]([C@@H]1OC(=O)CCCCCCC)[C@@](C)(OC(C)=O)C[C@H](OC(=O)CCC)[C@@]1(O)[C@H]2OC(=O)[C@@]1(C)O [thapsigargin]
- SAN activity response to ISO [2]: significantly reduced
- SAN cell beating rate at baseline [2]: reduce

Compound: ryanodine
- SAN activity response to ISO [2]: significantly reduced
- SAN cell beating rate at baseline [2]: reduce
